Measurements published in patent US12514938B2, “Fibroblast activation protein targeting peptides” (PERSPECTIVE THERAPEUTICS, INC., priority 2023, dated 2026).
pKi: −log10 of the molar value. *1 amine or outer side, *2 acyl side, *3 side chain or, on linkers, in order; H or OH if unused. Where a SMILES comes first, the peptide text is derived from it. Bridges are numbered along the chain shown (N, C = ends). oXylylene = c1ccc(C[*:2])c(C[*:1])c1

Target: T1, Human Fibroblast Activation Protein (FAP) (Homo sapiens, UniProt Q12884)
T1 sequence (Q12884 1-760): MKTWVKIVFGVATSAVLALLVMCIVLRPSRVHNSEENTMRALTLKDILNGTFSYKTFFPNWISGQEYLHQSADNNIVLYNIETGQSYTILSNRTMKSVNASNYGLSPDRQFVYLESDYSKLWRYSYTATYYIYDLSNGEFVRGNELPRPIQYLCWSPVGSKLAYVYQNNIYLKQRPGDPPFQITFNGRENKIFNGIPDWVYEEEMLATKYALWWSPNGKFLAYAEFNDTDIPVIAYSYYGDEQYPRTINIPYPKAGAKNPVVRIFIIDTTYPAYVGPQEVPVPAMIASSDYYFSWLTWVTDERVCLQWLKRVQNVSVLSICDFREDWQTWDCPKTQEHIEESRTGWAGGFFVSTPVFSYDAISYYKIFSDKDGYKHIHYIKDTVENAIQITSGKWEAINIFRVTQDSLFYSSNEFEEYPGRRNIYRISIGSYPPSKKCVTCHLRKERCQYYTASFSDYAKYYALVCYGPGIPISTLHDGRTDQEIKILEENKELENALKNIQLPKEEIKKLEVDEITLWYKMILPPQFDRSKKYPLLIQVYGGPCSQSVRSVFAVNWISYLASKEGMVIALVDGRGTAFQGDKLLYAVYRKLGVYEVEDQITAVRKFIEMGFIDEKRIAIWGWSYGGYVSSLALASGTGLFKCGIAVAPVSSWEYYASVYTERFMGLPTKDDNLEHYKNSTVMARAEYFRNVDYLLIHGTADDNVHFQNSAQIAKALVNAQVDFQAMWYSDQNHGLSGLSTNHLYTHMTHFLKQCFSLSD
Experiment: Enzyme inhibition assay against human FAP (substrate Z-GP-AMC), Example 1
Assay type: biochemical
Settings: human FAP 5 ng/well, 50 μM Z-GP-AMC; Ki from IC50 by Cheng-Prusoff
Experimental: Binding Affinity Against Human Fibroblast Activation Protein (FAP)
An enzyme inhibition assay was performed to determine IC50 values and then the Cheng-Prusoff equation used to calculate the Ki given a known Km of the substrate Z-GP-AMC for FAP. To perform the assay, FAP (5 ng/well) and the test peptide at varying concentrations (i.e. 10^−6 to 10^−12) were incubated in a black 96-well plate for 10 minutes at RT on a shaker plate. Then, the substrate Z-GP-AMC was added to give a final concentration of 50 μM. The total reaction volume per well was 100 μL The reaction was allowed to incubate at RT on a shaker plate for 1 hour protected from light, and then fluorescence read with a BioTek Synergy LX plate reader at an ex/em (360/40 and 460/40). Experiments were performed in at least duplicate, and controls of buffer only, buffer and FAP enzyme, and buffer with substrate and FAP enzyme only were included for comparison. The buffer used for the assay was 50 mM Tris-HCl, 1M NaCl, and 1 mg/mL BSA, pH=7.5. Data was plotted in GraphPad Prism and non-linear regression used to calculate IC50 values. The compounds tested and Ki values of each were as follows: […]

pKi	Compound
7.98	CC(=O)NCC(=O)N[C@H]1CSCc2ccccc2CSC[C@@H](C(N)=O)NC(=O)[C@H](Cc2c[nH]c3ccccc23)NC(=O)[C@H](Cc2c[nH]c3ccccc23)NC(=O)[C@H](CCC(N)=O)NC(=O)[C@H](CCC(=O)O)NC(=O)[C@H](Cc2ccccc2)NC(=O)[C@@H]2CCCN2C(=O)[C@H]([C@@H](C)O)NC1=O [VMT-FAP-1-1, Ac-G[C(oXdB)TPFEQWWC]-NH2] (Ac-GCTPFEQWWC-NH2; linker 2-10 via oXylylene)
8.55	CC(=O)N[C@@H](CCCNC(=N)N)C(=O)N[C@H]1CSCc2ccccc2CSC[C@@H](C(N)=O)NC(=O)[C@H](Cc2c[nH]c3ccccc23)NC(=O)[C@H](Cc2c[nH]c3ccccc23)NC(=O)[C@H](CCC(N)=O)NC(=O)[C@H](CCC(=O)O)NC(=O)[C@H](Cc2ccccc2)NC(=O)[C@@H]2CCCN2C(=O)[C@H]([C@@H](C)O)NC1=O [VMT-FAP-1-13, Ac-R[C(oXdB)TPFEQWWC]-NH2] (Ac-RCTPFEQWWC-NH2; linker 2-10 via oXylylene)
9.44	CC(=O)N[C@@H](CC(=O)O)C(=O)N[C@H]1CSCc2ccccc2CSC[C@@H](C(N)=O)NC(=O)[C@H](Cc2c[nH]c3ccccc23)NC(=O)[C@H](Cc2c[nH]c3ccccc23)NC(=O)[C@H](CCC(N)=O)NC(=O)[C@H](CCC(=O)O)NC(=O)[C@H](Cc2ccccc2)NC(=O)[C@@H]2CCCN2C(=O)[C@H]([C@@H](C)O)NC1=O [VMT-FAP-1-14, Ac-D[C(oXdB)TPFEQWWC]-NH2] (Ac-DCTPFEQWWC-NH2; linker 2-10 via oXylylene)
7.97	CC(=O)N[C@@H](CC(N)=O)C(=O)N[C@H]1CSCc2ccccc2CSC[C@@H](C(N)=O)NC(=O)[C@H](Cc2c[nH]c3ccccc23)NC(=O)[C@H](Cc2c[nH]c3ccccc23)NC(=O)[C@H](CCC(N)=O)NC(=O)[C@H](CCC(=O)O)NC(=O)[C@H](Cc2ccccc2)NC(=O)[C@@H]2CCCN2C(=O)[C@H]([C@@H](C)O)NC1=O [VMT-FAP-1-17, Ac-N[C(oXdB)TPFEQWWC]-NH2] (Ac-NCTPFEQWWC-NH2; linker 2-10 via oXylylene)
9.34	CC(=O)N[C@@H](CC(N)=O)C(=O)N[C@H]1CSCc2ccccc2CSC[C@@H](C(N)=O)NC(=O)[C@H](Cc2c[nH]c3ccccc23)NC(=O)[C@H](Cc2c[nH]c3ccccc23)NC(=O)[C@H](CCC(N)=O)NC(=O)[C@H](CCC(=O)O)NC(=O)[C@H](Cc2c[nH]c3ccccc23)NC(=O)[C@@H]2CCCN2C(=O)[C@H]([C@@H](C)O)NC1=O [VMT-FAP-1-62, Ac-N[C(oXdB)TPWEQWWC]-NH2] (Ac-NCTPWEQWWC-NH2; linker 2-10 via oXylylene)
7.97	CC(=O)N[C@@H](CC(N)=O)C(=O)N[C@H]1CSCc2ccccc2CSC[C@@H](C(N)=O)NC(=O)[C@H](Cc2c[nH]c3ccccc23)NC(=O)[C@H](Cc2c[nH]c3ccccc23)NC(=O)[C@H](CCC(N)=O)NC(=O)[C@H](CCC(=O)O)NC(=O)[C@H](Cc2c[nH]cn2)NC(=O)[C@@H]2CCCN2C(=O)[C@H]([C@@H](C)O)NC1=O [VMT-FAP-1-64, Ac-N[C(oXdB)TPHEQWWC]-NH2] (Ac-NCTPHEQWWC-NH2; linker 2-10 via oXylylene)
8.30	CC[C@H](C)[C@@H]1NC(=O)[C@H](CCC(=O)O)NC(=O)[C@H](Cc2ccccc2)NC(=O)[C@@H]2CCCN2C(=O)[C@H]([C@@H](C)O)NC(=O)[C@@H](NC(=O)[C@H](CO)NC(C)=O)CSCc2ccccc2CSC[C@@H](C(N)=O)NC(=O)[C@H](Cc2c[nH]c3ccccc23)NC(=O)[C@H](Cc2c[nH]c3ccccc23)NC1=O [VMT-FAP-1-94, Ac-S[C(oXdB)TPFEIWWC]-NH2] (Ac-SCTPFEIWWC-NH2; linker 2-10 via oXylylene)
7.95	CC(=O)N[C@@H](CO)C(=O)N[C@H]1CSCc2ccccc2CSC[C@@H](C(N)=O)NC(=O)[C@H](Cc2c[nH]c3ccccc23)NC(=O)[C@H](Cc2c[nH]c3ccccc23)NC(=O)[C@H](Cc2c[nH]cn2)NC(=O)[C@H](CCC(=O)O)NC(=O)[C@H](Cc2ccccc2)NC(=O)[C@@H]2CCCN2C(=O)[C@H]([C@@H](C)O)NC1=O [VMT-FAP-1-101, Ac-S[C(oXdB)TPFEHWWC]-NH2] (Ac-SCTPFEHWWC-NH2; linker 2-10 via oXylylene)
